Measurements reported in patent US20230270764A1, “COMPOSITION COMPRISING CANNABINOIDS, TERPENES, AND FLAVONOIDS FOR TREATING DEPRESSION” (priority 2020, published 2023).
pIC50: −log10 of the molar value. Read-outs that look alike come from different tables or passages of the source.

Experiments:
BV2 microglial cells = experiment: LPS-induced TNFα secretion by BV2 microglia cell cultures (ELISA); type: cell-based, murine; conditions: for levels of TNFα compared to cultures treated with vehicle and LPS: 24-hours incubation, CBD 10 but not 1 µM, linalool 100 but not 25 µM, kaempferol dose-dependently at 10, 25 and 50 µM, quercetin 10 and 25 but not 5 µM; for pIC50: Mus musculus
Procedure: The BV2 murine microglial cell line is used in these studies.
The BV2 cells are cultured at 37° C. in a humidified atmosphere with 5% CO2 in high D-glucose (4.5 g/L) Dulbecco’s modified Eagle’s medium (Sigma, Rehovot, Israel) supplemented with 5% heat-inactivated fetal bovine serum, streptomycin (100 µg/ml), and penicillin (100 units/ml) and sodium pyruvate (1 mM; all from Biological Industries Ltd., Kibbutz Beit Haemek, Israel). 24 hours before experiments with LPS stimulation, the BV2 cells are split into 24 well plates, 2×10^5 cells per well, covered with 1 ml of growth medium and allowed to attach overnight. 24 hr before experiments with α-synuclein, the BV2 cells are split into 96-well plates, 50,000 (5×10^4) cells per well, covered with 200 µl of growth medium and allowed to attach overnight. Cultures of BV2 microglia cells are first treated by an individual cannabinoid, or terpene or flavonoid selected from: Cannabidiol (CBD), Δ-9-tetrahydrocannabinol (THC), Δ-8-tetrahydrocannabinol (THC), cannabigerol (CBG), cannabichromene (CBC), cannabigerolic acid (CBGA), Cannabidiolic acid (CBDA), THC acid (THCA), cannabichromenic Acid (CBCA), Cannabidivarin (CBDV), tetrahydrocannabivarin (THCV), Cannabichromevarin (CBCV), Cannabichromerocin ([…]), Cannabivarin (CBV), Cannabicitran (CBT), Cannabinol (CBN), Cannabicyclol (CBL), Cannabigerorcin (CBGO), Cannabinodiol (CBND), β-caryophyllene, β-elemene, β-myrcene, linalool, α-pinene, β-pinene, eucalyptol, alpha-terpineol, valencene, geraniol (lemonol), bisabolol, nerolidol, ocimene, terpinolene, humulene, α-terpinene, camphene, fenchol, α-phellandrene, Δ3-carene, γ-cardinene, sabinene, limonene, β-amyrin, cycloartenol, cannflavin A, cannflavin B, kaempferol, quercetin, luteolin, apigenin, canniprene, orientin, β-sitosterol, vitexin, isovitexin, and chrysin. Additional cultures of BV2 microglia cells are treated by an individual cannabinoid, with at least one additional cannabinoid, and/or terpene, and/or flavonoid, and/or celecoxib. Additional cultures are exposed to the vehicle of these compounds (cremophor, ethanol and PBS, 1:1:18 (v/v/v)) (FIG. 2A). In some studies, cultures of BV2 microglia cells are treated by a specific whole plant cannabis extract, with or without supplementation with cannabinoid(s), and/or terpene(s) and/or flavonoid(s), and/or celecoxib (FIG. 2B).
For each individual cannabinoid mentioned above, 3-4 concentrations are used, ranging from 0.1 to 10 µM. For ultra-low dose Δ9-THC the concentration used is 0.01 µM. […] For celecoxib, 3-4 concentrations are used, ranging from 0.1 to 10 µM. Two hours following the treatment, the cultures are exposed to one of the following microglia stimulators: LPS (Sigma L2630; Escherichia coli serotype O111:B4) is dissolved in D-PBS (Sigma, D8537) to a pre-stock concentration of 1 mg/ml, aliquoted and stored at -80° C. Stock solution of LPS at 10 ug/ml is prepared using sterile D-PBS, followed by filtering via 0.22 µm filter membrane, aliquoting and storing in -20° C. LPS is applied into the cell medium at a final concentration of 100 ng/ml. Poly I:C (Sigma, P1530) was first dissolved in sterile, molecular grade water to the concentration of 10 mg/ml (following the manufacturer’s instructions). This stock solution was further diluted to the concentration of 1 mg/ml in sterile PBS, and the aliquots stored in -20 °C.

LPS-injected mice = experiment: Sucrose preference test in the LPS-induced model of depression; type: in vivo; conditions: Example 9; male C57BL/6, i.p. 1 h before LPS 330 µg/kg; mg/kg: CBD 30; CBDA 1 or 5; BCP 50; kaempferol 30; CBD 30 plus THC 10; CBD 30 plus kaempferol 30
Description: In a preliminary screening experiment, subjects were 4-6 months-old male C57BL/6 (Jackson Laboratories, USA). Animals were housed 2-3/cage, kept in an air-conditioned room (23+°C) and given ad libitum access to food and water. The mice were kept in a reversed light/dark cycle, with lights off from 7 a.m. to 7 p.m. All experiments were approved by the Hebrew University of Jerusalem Ethics Committee on Animal Care and Use. In preparation for the Sucrose Preference Test, mice were habituated 2-3 times to sucrose drinking, by exposing them overnight to two graduated tubes, one containing water and the other containing sucrose solution (1%, w/v). Water and sucrose consumption were measured, and sucrose preference was computed by dividing the amount of sucrose consumed by drinking (ml sucrose) by the total drinking volume (ml of sucrose + water). One day later, the weight of the mice and the food in their cages was weighed for later analysis of food consumption and body weight changes. Groups of mice were injected intraperitoneally (i.p.) with either vehicle (cremophor, ethanol and PBS, 1:1:18 (v/v/v)) or a cannabinoid-based formulation (by itself or with another cannabinoid, or a terpene or a flavonoid). One hour later, each of these groups was injected with LPS (330 µg/kg). All injections were administered at a dose of 10 ml/kg. Four hours following the LPS injection, mice were tested in the Open-Field Test. In this test, the measured locomotor activity reflects not only motor capacity, but particularly the innate motivation for spatial exploration (which increases the distance travelled) and the anxiety level (which reduces the distance travelled, in general, and particularly the distance and time spent in the center of the open field). Each subject was placed near one of the walls of a white 50 X 50 cm^2 arena with 40 cm high walls. The distance travelled (cm), the velocity of the movement (cm/second), the time spent (seconds), distance travelled (cm) in the center area of the arena, as well as the number of entries from the perimeter area into the center of the arena were automatically measured over a 4-minute period, using EthoVision XT video tracking system and software (Noldus, The Netherlands). Twenty-four hours after the LPS injection, mice were tested in the Social Exploration Test. […] Social exploration, defined as the time of near contact between the nose of the subject and the juvenile in the small cage was recorded for 4 min, using computerized in-house software. Sucrose preference was assessed, as described above, between 8 to 27 hr post LPS injection. Body weight and weight of the food were measured two hours before the LPS injection, and again after 24 hours, and the change in body weight and food consumption were calculated. […]

[1] = Example 4, by itself at 1, 2.5 and 5 µM

C=C(C)[C@@H]1CCC(C)=C[C@H]1c1c(O)cc(CCCCC)cc1O [CBD, cannabidiol]
levels of TNFα compared to cultures treated with vehicle and LPS (BV2 microglial cells): reduced
release of TNFα (BV2 microglial cells; Example 3, 10 µM (not 1, 2.5 or 5 µM)): significantly inhibited
release of TNFα vs LPS-activated cultures treated with vehicle (BV2 microglial cells; [1]): no effects
TNFα secretion from LPS activated microglial cells (BV2 microglial cells; Example 5, CBD 5 µM alone (p<0.05)): decreased the TNFα secretion
release of TNFα vs LPS-activated cultures treated with vehicle (BV2 microglial cells; Example 5, by themselves, CBD 1 and 2.5 µM, quercetin 1, 2.5 and 5 µM): did not affect
release of TNFα vs LPS-activated cultures treated with vehicle (BV2 microglial cells; Example 6, by itself, CBD 1, 2.5 and 5 µM, CBDV 1, 2.5, 5 and 10 µM): no concentration of either CBD or CBDV by itself affected release of TNFα
inhibition of LPS-induced TNFα secretion (BV2 microglial cells; Example 7, by themselves): did not produce significant inhibition
LPS-induced TNFα release (BV2 microglial cells; Example 25, LPS 100 ng/ml, CannA 5 and 10 µM, CBD and CannB only at 10 µM, CannC 1-10 µM, extract concentration as dominant cannabinoid): significantly inhibited
pIC50 (BV2 microglial cells; BV-2, read-out: CBD IC50, LPS-induced TNFα release, Example 4, addition of 1 µM kaempferol): 5.64
pIC50 (BV2 microglial cells; BV-2, read-out: CBD IC50, LPS-induced TNFα release, Example 4, addition of 2.5 µM kaempferol): 5.89
pIC50 (BV2 microglial cells; BV-2, read-out: CBD IC50, LPS-induced TNFα release, Example 4, addition of 5 µM kaempferol): 6.10
pIC50 (BV2 microglial cells; BV-2, read-out: CBD IC50, LPS-induced TNFα release, Example 5, addition of 1 µM quercetin): 5.42
pIC50 (BV2 microglial cells; BV-2, read-out: CBD IC50, LPS-induced TNFα release, Example 5, addition of 2.5 µM quercetin): 5.49
pIC50 (BV2 microglial cells; BV-2, read-out: CBD IC50, LPS-induced TNFα release, Example 5, addition of 5 µM quercetin): 5.74
pIC50 (BV2 microglial cells; BV-2, read-out: CBD IC50, LPS-induced TNFα release, Example 6, addition of 1 µM CBDV): 5.47
pIC50 (BV2 microglial cells; BV-2, read-out: CBD IC50, LPS-induced TNFα release, Example 6, addition of 2.5 µM CBDV): 5.32
pIC50 (BV2 microglial cells; BV-2, read-out: CBD IC50, LPS-induced TNFα release, Example 6, addition of 5 µM CBDV): 5.57
pIC50 (BV2 microglial cells; BV-2, read-out: CBD IC50, LPS-induced TNFα release, Example 6, addition of 10 µM CBDV): 5.62
pIC50 (BV2 microglial cells; BV-2, read-out: IC50 for TNFα inhibition): 5.14
pIC50 (BV2 microglial cells; BV-2, read-out: IC50 for inhibiting LPS-induced TNFα release): 5.28
pIC50 (BV2 microglial cells; BV-2, read-out: IC50 for inhibiting LPS-induced TNFα release, Example 5 (FIG. 6C), by itself): 5.21
pIC50 (BV2 microglial cells; BV-2, read-out: IC50 for inhibiting LPS-induced TNFα release, Example 6 (FIG. 7C), by itself): 5.27
sucrose preference compared with vehicle-treated groups (LPS-injected mice): significantly increased sucrose preference

C=C(C)[C@@H]1CCC(C)=C[C@H]1c1c(O)cc(CCCCC)c(C(=O)O)c1O [CBDA, Cannabidiolic acid]
effect on lipopolysaccharide-induced TNFα secretion (BV2 microglial cells; THC 0.1, 0.5 and 1 µM, CBDA 0.2, 1 and 2 µM, CBC 0.1, 1 and 2 µM, α-pinene, β-pinene, limonene 25 or 100 µM): no effect
sucrose preference compared with vehicle-treated groups (LPS-injected mice): significantly increased sucrose preference

O=c1c(O)c(-c2ccc(O)cc2)oc2cc(O)cc(O)c12 [kaempferol]
levels of TNFα compared to cultures treated with vehicle and LPS (BV2 microglial cells): reduced
release of TNFα vs LPS-activated cultures treated with vehicle (BV2 microglial cells; [1]): no effects
pIC50 (BV2 microglial cells; BV-2, Example 4 (FIG. 5C), by itself, read-out: IC50 for inhibiting LPS-induced TNFα release): 5.01
sucrose preference compared with vehicle-treated groups (LPS-injected mice): significantly increased sucrose preference
